We go through 32 compounds from patent US12552772B2, “2-pyrazole anilines and related analogs for inhibiting YAP/TAZ-TEAD” (KATHOLIEKE UNIVERSITEIT LEUVEN, priority 2021, dated 2026).

By EC50 is commonly meant the concentration that produces a half-maximal response.

For the first assay, the system named is YAP/TAZ-TEAD transcription. Nature of the assay: Reporter gene assay for measuring the inhibition of YAP/TAZ-TEAD transcription (TEAD-responsive element luciferase reporter in Hek293T cells). Type of assay: cell-based. The note with it: Homo sapiens, HEK-293T, 24 hours incubation. Put shortly: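 Percent inhibition, scaled between vehicle (0%) and a positive control inhibitor (100%), came from SteadyLite luciferase signal after 24 h compound exposure at 37 °C/5% CO2. Cells: Hek293T transiently carrying a TEAD-responsive luciferase reporter; EC50 derived.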
In general terms: In a reporter assay the amount or activity of a reporter protein is the signal.
`C=CC(=O)Nc1cncc(-c2cccc(-c3ccn(Cc4ccccc4)n3)c2)c1` [compound 004, N-(5-(3-(1-benzyl-1H-pyrazol-3-yl)phenyl)pyridin-3-yl)acrylamide] gave an EC50 of less than 1 µM. On the same count and under the same terms, the result for `NS(=O)(=O)CCNc1ccc(-c2ccccc2)cc1-c1ccn(Cc2cccnc2)n1` [compound 054, 2-((3-(1-(pyridin-3-ylmethyl)-1H-pyrazol-3-yl)-[1,1′-biphenyl]-4-yl)amino)ethane-1-sulfonamide] reads less than 1 µM; that for `C=CC(=O)NCCNc1ccc(-c2ccccc2)cc1-c1ccn(Cc2cccnc2)n1` [compound 075, N-(2-((3-(1-(pyridin-3-ylmethyl)-1H-pyrazol-3-yl)-[1,1′-biphenyl]-4-yl)amino)ethyl)acrylamide], 1 to 20 µM. The same measure, in the same setting: the result for `CNS(=O)(=O)CCNc1ccc(-c2cccc(F)c2)cc1-c1ccn(Cc2cccnc2)n1` [compound 088] reads less than 1 µM. Compound `CNS(=O)(=O)CCNc1ccc(-c2ccc(Cl)cc2)cc1-c1ccn(C)n1` [compound 121, 2-((4′-chloro-3-(1-methyl-1H-pyrazol-3-yl)-[1,1′-biphenyl]-4-yl)amino)-N-methylethane-1-sulfonamide] registered an EC50 of less than 1 µM.

Take `C=CC(=O)NCc1cnc(-c2ccc(C(F)(F)F)cc2)cc1-c1ccn(C(F)F)n1` [compound 209, N-((4-(1-(difluoromethyl)-1H-pyrazol-3-yl)-6-(4-(trifluoromethyl)phenyl)pyridin-3-yl)methyl)acrylamide]: the EC50 was less than 1 µM. For `C=CC(=O)NCc1cnc(-c2ccc(Cl)cc2)cc1-c1ccn(C(F)F)n1` [compound 210, N-((6-(4-chlorophenyl)-4-(1-(difluoromethyl)-1H-pyrazol-3-yl)pyridin-3-yl)methyl)acrylamide], the EC50 was less than 1 µM. `CCC(=O)NCc1cnc(-c2cccc(F)c2)cc1-c1ccn(C(F)F)n1` [compound 212, N-((4-(1-(difluoromethyl)-1H-pyrazol-3-yl)-6-(3-fluorophenyl)pyridin-3-yl)methyl)propionamide] yielded an EC50 of 1 to 20 µM.

In turn, `CCC(=O)NCc1cnc(-c2cccc(Cl)c2)cc1-c1ccn(C(F)F)n1` [compound 214, N-((6-(3-chlorophenyl)-4-(1-(difluoromethyl)-1H-pyrazol-3-yl)pyridin-3-yl)methyl)propionamide] yielded an EC50 greater than 20 µM.

Compound `CCC(=O)NCc1cnc(-c2cccc(C(F)(F)F)c2)cc1-c1ccn(C(F)F)n1` [compound 216, N-((4-(1-(difluoromethyl)-1H-pyrazol-3-yl)-6-(3-(trifluoromethyl)phenyl)pyridin-3-yl)methyl)propionamide] returned an EC50 greater than 20 µM.

The compound `C=CC(=O)NCc1cnc(-c2ccc(C(F)F)cc2)cc1-c1ccn(C(F)F)n1` [compound 217, N-((4-(1-(difluoromethyl)-1H-pyrazol-3-yl)-6-(4-(difluoromethyl)phenyl)pyridin-3-yl)methyl)acrylamide] displayed an EC50 of less than 1 µM. The compound `C=CC(=O)NCc1cc(-c2ccn(C(F)F)n2)cc(-c2ccc(F)cc2)n1` [compound 218, N-((4-(1-(difluoromethyl)-1H-pyrazol-3-yl)-6-(4-fluorophenyl)pyridin-2-yl)methyl)acrylamide] gave an EC50 of less than 1 µM. Same read-out and setting: as for `C=CC(=O)NCc1cnc(-c2ccc(C#N)cc2)cc1-c1ccn(C(F)F)n1` [compound 219, N-((6-(4-cyanophenyl)-4-(1-(difluoromethyl)-1H-pyrazol-3-yl)pyridin-3-yl)methyl)acrylamide], the figure is less than 1 µM; as for `C=CC(=O)NCc1cnc(-c2cccc(C#N)c2)cc1-c1ccn(C(F)F)n1` [compound 220, N-((6-(3-cyanophenyl)-4-(1-(difluoromethyl)-1H-pyrazol-3-yl)pyridin-3-yl)methyl)acrylamide], less than 1 µM. The same measure, in the same setting: the result for `C=CC(=O)NCc1cnc(-c2ccn(C(F)F)n2)cc1N1CCC(F)(F)CC1` [compound 222, N-((6-(1-(difluoromethyl)-1H-pyrazol-3-yl)-4-(4,4-difluoropiperidin-1-yl)pyridin-3-yl)methyl)acrylamide] reads 1 to 20 µM; that for `CCC(=O)NCc1cc(-c2ccc(F)cc2)cc(-c2ccn(C(F)F)n2)n1` [compound 226, N-((6-(1-(difluoromethyl)-1H-pyrazol-3-yl)-4-(4-fluorophenyl)pyridin-2-yl)methyl)propionamide], less than 1 µM; that for `C=CC(=O)NCc1cnc(-c2ccc(F)cc2)cc1-c1cnn(C(F)F)n1` [compound 230, N-((4-(2-(difluoromethyl)-2H-1,2,3-triazol-4-yl)-6-(4-fluorophenyl)pyridin-3-yl)methyl)acrylamide], less than 1 µM. The same measure, in the same setting: as for `CCC(=O)NCc1cnc(-c2ccc(F)cc2)cc1-c1cc2n(n1)CCCC2` [compound 232, N-((6-(4-fluorophenyl)-4-(4,5,6,7-tetrahydropyrazolo[1,5-a]pyridin-2-yl)pyridin-3-yl)methyl)propionamide], the figure is less than 1 µM; as for `CCC(=O)NCc1cc(=O)n(-c2ccc(F)cc2)cc1-c1ccn(C)n1` [compound 236, N-((1-(4-fluorophenyl)-5-(1-methyl-1H-pyrazol-3-yl)-2-oxo-1,2-dihydropyridin-4-yl)methyl)propionamide], 1 to 20 µM. Compound `Cn1ccc(-c2cn(-c3ccc(F)cc3)c(=O)cc2CNS(C)(=O)=O)n1` [compound 237, N-((1-(4-fluorophenyl)-5-(1-methyl-1H-pyrazol-3-yl)-2-oxo-1,2-dihydropyridin-4-yl)methyl)methanesulfonamide] came in with an EC50 greater than 20 µM. Same read-out and setting: the result for `CNS(=O)(=O)NCc1cc(=O)n(-c2ccc(F)cc2)cc1-c1ccn(C)n1` [compound 238, N-methyl, N′-((1-(4-fluorophenyl)-5-(1-methyl-1H-pyrazol-3-yl)-2-oxo-1,2-dihydropyridin-4-yl)methyl)sulfamide] reads greater than 20 µM.

On to `CCC(=O)NCc1ccc(-c2ccc(F)cc2)cc1-n1ccc(C)n1` [compound 242, N-((4′-fluoro-3-(3-methyl-1H-pyrazol-1-yl)-[1,1′-biphenyl]-4-yl)methyl)propionamide], for which the EC50 is greater than 20 µM.

In turn, `CCC(=O)NCc1cnc(-c2ccc(F)cc2)cc1-n1ncc(C)n1` [compound 245, N-((6-(4-fluorophenyl)-4-(4-methyl-2H-1,2,3-triazol-2-yl)pyridin-3-yl)methyl)propionamide] had an EC50 of less than 1 µM. Same read-out and setting: the result for `C=CC(=O)NCc1cnc(-c2ccc(F)cc2)cc1-n1ccc(C(F)(F)F)n1` [compound 246, N-((6-(4-fluorophenyl)-4-(3-(trifluoromethyl)-1H-pyrazol-1-yl)pyridin-3-yl)methyl)acrylamide] reads greater than 20 µM; that for `C=CC(=O)NCc1cnc(-c2ccc(F)cc2)cc1-n1ccc(C2CC2)n1` [compound 247, N-((4-(3-cyclopropyl-1H-pyrazol-1-yl)-6-(4-fluorophenyl)pyridin-3-yl)methyl)acrylamide], less than 1 µM. On the same count and under the same terms, the result for `C=CC(=O)NCc1cnc(-c2ccc(F)cc2)cc1-n1cc(C(F)(F)F)cn1` [compound 248, N-((6-(4-fluorophenyl)-4-(4-(trifluoromethyl)-1H-pyrazol-1-yl)pyridin-3-yl)methyl)acrylamide] reads less than 1 µM; that for `C=CC(=O)NCc1cnc(-c2ccc(F)cc2)cc1-n1nnnc1C` [compound 250, N-((6-(4-fluorophenyl)-4-(5-methyl-1H-tetrazol-1-yl)pyridin-3-yl)methyl)acrylamide], greater than 20 µM. Compound `CCC(=O)NCc1cnc(-c2ccc(F)cc2)cc1-n1nnc(C)n1` [compound 251, N-((6-(4-fluorophenyl)-4-(5-methyl-2H-tetrazol-2-yl)pyridin-3-yl)methyl)propionamide] returned an EC50 greater than 20 µM.

Compound `CCC(=O)NCc1cnc(-c2ccc(F)cc2)cc1-n1nnnc1C` [compound 252, N-((6-(4-fluorophenyl)-4-(5-methyl-1H-tetrazol-1-yl)pyridin-3-yl)methyl)propionamide] gave an EC50 greater than 20 µM.

In turn, `CCC(=O)N1CCC(c2ccc(-c3ccc(F)cc3)cc2-c2ccn(C)n2)C1` (stereo not shown) [compound 259, 1-(3-(4′-fluoro-3-(1-methyl-1H-pyrazol-3-yl)-[1,1′-biphenyl]-4-yl)pyrrolidin-1-yl)propan-1-one] displayed an EC50 of 1 to 20 µM. For `CS(=O)(=O)N1CCC(c2ccc(-c3ccc(F)cc3)cc2-c2ccn(C(F)F)n2)C1` (stereo not shown) [compound 260, 1-(difluoromethyl)-3-(4′-fluoro-4-(1-(methylsulfonyl)pyrrolidin-3-yl)-[1,1′-biphenyl]-3-yl)-1H-pyrazole], the EC50 is greater than 20 µM. The same measure, in the same setting: as for `CNS(=O)(=O)N1CCC(c2cnc(-c3ccc(F)cc3)cc2-c2ccn(C(F)F)n2)C1` (stereo not shown) [compound 263, 3-(4-(1-(difluoromethyl)-1H-pyrazol-3-yl)-6-(4-fluorophenyl)pyridin-3-yl)-N-methylpyrrolidine-1-sulfonamide], the figure is greater than 20 µM.

For the next assay, the system named is NCI-H226. As to the kind of experiment: Mesothelioma cell line proliferation assay (ATPlite), NCI-H226. Type of assay: cell-based. The settings on record: Homo sapiens, 144 h; NCI-H226 cells, 6 days, ATPlite cell viability. Here is the method:
Mesothelioma cell lines, NCI-H226 and NCI-H2052 (all sourced from the ATCC cell culture collection) are plated in 96-well plates (Corning® 96 Well White Polystyrene Microplate clear flat bottom, white polystyrene (TC-Treated)), at 1500 cells/well in full medium (RPMI 1640 ATCC modification with L-glutamine, HEPES, Phenol Red, Sodium Pyruvate, High glucose, Low sodium bicarbonate and 10% fetal bovine serum). Cells are incubated overnight at 37° C. in an incubator with 5% CO2. Then compounds, dissolved in DMSO, are added in dose-response. Cells are incubated with compound dilutions for another 6 days at 37° C. in an incubator with 5% CO2. Cell viability is quantitated using the ATPlite kit (Perkin-Elmer) and the luminescence is read-out using an Envision instrument (Perkin-Elmer). The amount of relative light units produced using the ATPlite kit is used to calculated percent of inhibition.
The activities of example compounds tested are depicted in the table below. The activity ranges A, B and C refer to EC50 values in the mesothelioma cell line proliferation assay as described as follows: “A”: EC50<1 μM; “B”: 1 μM s EC50≤10 μM and “C”: EC50>10 μM. NT: not tested.
In general terms: ATP-based viability assays read luminescence as a measure of living cells.
In turn, `C=CC(=O)Nc1cncc(-c2cccc(-c3ccn(Cc4ccccc4)n3)c2)c1` [compound 004, N-(5-(3-(1-benzyl-1H-pyrazol-3-yl)phenyl)pyridin-3-yl)acrylamide] displayed an EC50 of 1 to 10 µM. The same measure, in the same setting: as for `NS(=O)(=O)CCNc1ccc(-c2ccccc2)cc1-c1ccn(Cc2cccnc2)n1` [compound 054, 2-((3-(1-(pyridin-3-ylmethyl)-1H-pyrazol-3-yl)-[1,1′-biphenyl]-4-yl)amino)ethane-1-sulfonamide], the figure is less than 1 µM; as for `C=CC(=O)NCCNc1ccc(-c2ccccc2)cc1-c1ccn(Cc2cccnc2)n1` [compound 075, N-(2-((3-(1-(pyridin-3-ylmethyl)-1H-pyrazol-3-yl)-[1,1′-biphenyl]-4-yl)amino)ethyl)acrylamide], less than 1 µM; as for `CNS(=O)(=O)CCNc1ccc(-c2cccc(F)c2)cc1-c1ccn(Cc2cccnc2)n1` [compound 088], greater than 10 µM.

As to `CNS(=O)(=O)CCNc1ccc(-c2ccc(Cl)cc2)cc1-c1ccn(C)n1` [compound 121, 2-((4′-chloro-3-(1-methyl-1H-pyrazol-3-yl)-[1,1′-biphenyl]-4-yl)amino)-N-methylethane-1-sulfonamide], the EC50 lay in the range of 1 to 10 µM.
